In general, MIC refers to the least concentration at which growth counts as inhibited. A word on the inhibition: it is the drop in the measured response relative to a control, in per cent.

This is an account of results in ChEMBL document CHEMBL6103565, “Current strategies in design and synthesis of antifungals hybrid and chimeric diazine derivatives” (Bioorg Med Chem, 2025).

What all share (assay type): functional
Assay [1] concerns Candida albicans. The experiment in a line: Antifungal activity against azole-resistant Candida albicans ATCC 18804 assessed as reduction in fungal growth by XTT assay. Background: Formazan colour is commonly taken as a measure of viable cells.
In the next assay the test system is Geotrichum candidum. The experiment in a line: Antifungal activity against Geotrichum candidum.
Assay [2] concerns Syncephalastrum racemosum. The experiment in a line: Antifungal activity against Syncephalastrum racemosum.
For assay [3], the system named is Candida albicans. The experiment in a line: Antifungal activity against Candida albicans.
Another assay deals with Nakaseomyces glabratus. The experiment in a line: Antifungal activity against Candida glabrata MTCC 3019 assessed as inhibition of fungal growth incubated for 24 hrs.
The subject of assay [4] is Candida albicans. The experiment in a line: Antifungal activity against Candida albicans MTCC 7315 assessed as inhibition of fungal growth incubated for 24 hrs.
The test system of another assay is Candida parapsilosis. The experiment in a line: Antifungal activity against Candida parapsilosis MTCC 1744 assessed as inhibition of fungal growth incubated for 24 hrs. Particulars: Lodderomyces parapsilosis.
The test system of assay [5] is Candida albicans. The experiment in a line: Antifungal activity against Candida albicans MTCC 4748 assessed as inhibition of fungal growth incubated for 24 hrs.
In assay [6] the test system is Candida albicans. The experiment in a line: Antifungal activity against Candida albicans MTCC 227 assessed as inhibition of fungal growth incubated for 24 hrs.
Assay [7] deals with Candida albicans. The experiment in a line: Antifungal activity against Candida albicans MTCC 3018 assessed as inhibition of fungal growth incubated for 24 hrs.
Another assay concerns Pichia kudriavzevii. The experiment in a line: Antifungal activity against Pichia kudriavzevii MTCC 3020 assessed as inhibition of fungal growth incubated for 24 hrs.
Assay [8] concerns Candida albicans. The experiment in a line: Antifungal activity against Candida albicans MTCC 1637 assessed as inhibition of fungal growth incubated for 24 hrs.
For assay [9], the system named is Candida albicans. The experiment in a line: Antifungal activity against Candida albicans MTCC 3017 assessed as inhibition of fungal growth incubated for 24 hrs.
Assay [10] concerns Candida albicans. The experiment in a line: Antifungal activity against azole-resistant Candida albicans ATCC 18804 assessed as fungal growth inhibition incubated for 24 hrs by CLSI protocol based broth microdilution method. (In broth dilution the organism is exposed to a series of concentrations in liquid medium.)
Assay [11] concerns Aspergillus niger. The experiment in a line: Antifungal activity against Aspergillus niger assessed as zone of inhibition by disc diffusion method. (In general: Agar diffusion results depend on both activity and mobility in agar.)
A further assay deals with Candida tropicalis. The experiment in a line: Antifungal activity against Candida tropicalis assessed as zone of inhibition by disc diffusion method.
For assay [12], the system named is Candida albicans. The experiment in a line: Antifungal activity against azole-resistant Candida albicans ATCC 10231 assessed as reduction in fungal growth by XTT assay.
For the next assay, the system named is Aspergillus fumigatus. The experiment in a line: Antifungal activity against Aspergillus fumigatus assessed as reduction in fungal growth.
Assay [13] has as its system Candida albicans. The experiment in a line: Antifungal activity against Candida albicans assessed as diameter of zone inhibition.
Assay [14] deals with Aspergillus niger. The experiment in a line: Antifungal activity against Aspergillus niger assessed as diameter of zone inhibition.
Assay [15] has as its system Aspergillus niger. The experiment in a line: Antifungal activity against Aspergillus niger assessed as zone of inhibition.
Assay [16] concerns Candida albicans. The experiment in a line: Antifungal activity against Candida albicans assessed as zone of inhibition.
In assay [17] the test system is Candida albicans. The experiment in a line: Antifungal activity against Candida albicans ATCC 90028 assessed as growth inhibition incubated for 36 hrs by resazurin dye based assay.
The test system of another assay is Botrytis cinerea. The experiment in a line: Antifungal activity against Botrytis cinerea assessed as reduction in fungal growth at 50 ug/ml relative to control.
The subject of a further assay is Botryosphaeria dothidea. The experiment in a line: Antifungal activity against Botryosphaeria dothidea assessed as reduction in fungal growth at 50 ug/ml relative to control.
In a further assay the test system is Phomopsis. The experiment in a line: Antifungal activity against Phomopsis assessed as reduction in fungal growth at 50 ug/ml relative to control.
In assay [18] the test system is Candida albicans. The experiment in a line: Antifungal activity against Candida albicans ATCC 10231 assessed as inhibition of mycelial growth relative to control.
Another assay relates to Microsporum audouinii. The experiment in a line: Antifungal activity against Microsporum audouinii.
Assay [19] relates to Candida albicans. The experiment in a line: Antifungal activity against Candida albicans assessed as zone of inhibition by disc diffusion method.
Another assay relates to Aspergillus flavus. The experiment in a line: Antifungal activity against Aspergillus flavus assessed as zone of inhibition by disc diffusion method.

≈ marks a conversion by molar mass, not a printed value.

For `COc1ccc(/N=N/c2sc(-n3[nH]c(=O)ccc3=O)nc2C)cc1`, the MIC in the assay with Candida albicans [1] stood at 0.2 µg/mL (≈ 0.582 µM).

In the case of `Cc1nn(-c2ccccc2)c2nc3sc(C(=O)OCC(=O)c4ccccc4)c(N)c3nc12`, the values for the MIC (with Geotrichum candidum; in [2]; against Candida albicans [3]) were 4 µg/mL (≈ 9.02 µM), 5 µg/mL (≈ 11.3 µM) and 5 µg/mL (≈ 11.3 µM), respectively.

Consider `Fc1ccc(-c2nnc3c4ccc(C(F)(F)F)nc4nc(-c4ccco4)n23)c(Cl)c1`, for which the MIC in the assay on Nakaseomyces glabratus, in the assay on Candida albicans [4], in the assay on Candida parapsilosis, in the assay on Candida albicans [5], in the assay on Candida albicans [6] and in the assay with Candida albicans [7] was 3.9 µg/mL (≈ 8.99 µM) in each case. For the same compound, the MIC with Pichia kudriavzevii, in the assay on Candida albicans [8] and in the assay with Candida albicans [9] was 3.9 µg/mL (≈ 8.99 µM) in each case.

`O=c1ccc(=O)n(-c2nc(-c3cc4c(ccc5ccccc54)oc3=O)cs2)[nH]1`: the minimum inhibitory concentration (MIC) with Candida albicans [10] came to 0.9 µg/mL (≈ 2.31 µM).

Take `COc1ccc(C2C3C(C)=NN(c4ccccc4)C3N=C3SCCN32)cc1` (configuration not stated): the “inhibition zone (IZ)” value in the assay with Aspergillus niger [11] was determined as 24 mm; in the assay on Candida tropicalis it was 26 mm.

As for `O=C1N=C(n2[nH]c(=O)ccc2=O)S/C1=N\Nc1ccc(Cl)cc1Cl`, the minimum inhibitory concentration (MIC) in the assay with Candida albicans [12] amounted to 2.1 µg/mL (≈ 5.47 µM); with Candida albicans [1], 0.6 µg/mL (≈ 1.56 µM).

In the case of `O=C1N/C(=N/c2nn(-c3ccccc3)nc2C(=O)Nc2cnccn2)S/C1=C\c1ccccc1`, the minimal inhibitory concentration (MIC) with Aspergillus fumigatus is under 214 µg/mL.

Regarding `Clc1ccc(C(Cn2ccnc2)OCc2csc3c(Cl)cccc23)c(Cl)c1` (configuration not stated) [SERTACONAZOLE], the results for the “inhibition zone (IZ)” value with Candida albicans [13] and with Aspergillus niger [14] were 20 mm and 24 mm, respectively.

In the case of `CCOC(=O)c1sc2nc3c(nc2c1N)c(C)nn3-c1ccccc1`, the MIC (with Geotrichum candidum; in assay [2]; with Candida albicans [3]) was 5 µg/mL (≈ 14.1 µM) in each case.

With `C=CCNN1CCN(c2nc3ccccc3nc2-c2cccc(C)c2)CC1`, the entries for the “inhibition zone (IZ)” value in the assay with Candida albicans [13] and in the assay with Aspergillus niger [14] were 13 mm and 14 mm, respectively.

Turning to `CC(=O)N(C(C)=O)N1C(=O)CC(=O)N(c2nnc(-c3cc([N+](=O)[O-])cc([N+](=O)[O-])c3)s2)C1=S`, the “inhibition zone (IZ)” value with Aspergillus niger [15] was 21 mm; in the assay with Candida albicans [16], 23 mm.

`O=C(Nc1ccc(F)c(F)c1)N1CCn2c(nnc2C(F)(F)F)C1`: the MIC in the assay with Candida albicans [17] was 6.25 µg/mL (≈ 18 µM).

Regarding `O=[N+]([O-])c1ccc(-c2nnc3c4ccc(C(F)(F)F)nc4nc(-c4ccco4)n23)cc1`, the minimal inhibitory concentration (MIC) with Nakaseomyces glabratus, with Candida albicans [4], with Candida parapsilosis, in the assay with Candida albicans [5], in the assay on Candida albicans [6] and in the assay on Candida albicans [7] was 3.9 µg/mL (≈ 9.15 µM) each time. Further, the MIC with Pichia kudriavzevii, in the assay on Candida albicans [8] and in the assay on Candida albicans [9] was 3.9 µg/mL (≈ 9.15 µM) each time.

`Cc1nc2c(sc3nc4c(nc32)c(C)nn4-c2ccccc2)c(=O)o1`: the values for the minimal inhibitory concentration (MIC) (against Geotrichum candidum; in [2]; in the assay on Candida albicans [3]) were 4 µg/mL (≈ 11.4 µM), 3 µg/mL (≈ 8.59 µM) and 3 µg/mL (≈ 8.59 µM), respectively.

Consider `C/C=C/N1CCN(c2nc3ccccc3nc2-c2cccc(C)c2)CC1`, for which the “inhibition zone (IZ)” value was determined as 14 mm in the assay with Candida albicans [13] and 15 mm with Aspergillus niger [14].

For `Cc1nc(Oc2ccc(C(=O)Nc3ccc(OC(F)(F)F)c(Cl)c3)cc2)cc(C(F)(F)F)n1`, the inhibition at 50 µg/mL was 98.5% in the assay on Botrytis cinerea, 98.5% in the assay on Botryosphaeria dothidea and 92% with Phomopsis.

`COC1=CC(=O)C[C@@H](C)[C@]12Oc1c(Cl)c(OC)cc(OC)c1C2=O` [GRISEOFULVIN]: the “inhibition zone (IZ)” value in the assay with Aspergillus niger [11] came out at 22 mm; with Candida tropicalis, 25 mm. Further, the MIC against Candida albicans [3] amounted to 500 µg/mL (≈ 1420 µM).

For `O=C(Nc1ccccc1)c1nnn2c1[nH]c(=O)c1ccccc12`, in the assay on Candida albicans [18], the “inhibition (INH)” value was found to be 40%.

Turning to `COc1ccc(C2CC(=Nn3c(=O)cc[nH]c3=O)CC(c3ccc(OC)cc3)S2)cc1` (configuration not stated), the MIC against Microsporum audouinii was 4 µg/mL (≈ 9.14 µM); against Candida albicans [3], 0.25 µg/mL (≈ 0.571 µM).

Consider `CC(=O)N/C(=C\c1ccc(Cl)cc1)c1nc2c(=O)[nH]c(=O)n(Cc3ccccc3Cl)c2[nH]1`, for which the “inhibition zone (IZ)” value in the assay with Candida albicans [19] was 12 mm; in the assay on Aspergillus flavus it was 10 mm.

As to `O=c1ccc(=O)n(-c2nc(-c3ccc([N+](=O)[O-])cc3)cs2)[nH]1`, the MIC with Candida albicans [10] was determined as 3.9 µg/mL (≈ 12.3 µM).

For `Cc1cccc(-c2nc3ccccc3nc2N2CCN(C)CC2)c1`, the “inhibition zone (IZ)” value in the assay with Candida albicans [13] is given as 14 mm; in the assay with Aspergillus niger [14] it was 16 mm.
